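Five concentrations, 48 hours, 96-well plates. Here, GI50 denotes the concentration required for 50% inhibition of growth. The concentration for full growth arrest is given as TGI.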
Columns and labels:
Experiment in all cases: NCI anticancer screen, dose series, 48 h
MALME-3M melanoma = test system: MALME-3M melanoma
OVCAR-4 ovarian = test system: OVCAR-4 ovarian
HCT-15 colon = test system: HCT-15 colon
SNB-75 CNS = test system: SNB-75 CNS
SK-MEL-28 melanoma = test system: SK-MEL-28 melanoma
U251 CNS = test system: U251 CNS
UACC-62 melanoma = test system: UACC-62 melanoma
HL-60(TB) leukemia = test system: HL-60(TB) leukemia
SF-539 CNS = test system: SF-539 CNS
DU-145 prostate = test system: DU-145 prostate
SK-OV-3 ovarian = test system: SK-OV-3 ovarian
PC-3 prostate = test system: PC-3 prostate
ACHN renal = test system: ACHN renal
OVCAR-8 ovarian = test system: OVCAR-8 ovarian
M14 melanoma = test system: M14 melanoma
MDA-MB-435 = test system: MDA-MB-435
KM12 colon = test system: KM12 colon
NCI/ADR-RES ovarian = test system: NCI/ADR-RES ovarian
SK-MEL-2 melanoma = test system: SK-MEL-2 melanoma
SR leukemia = test system: SR leukemia
MDA-MB-231 breast = test system: MDA-MB-231 breast
SNB-19 CNS = test system: SNB-19 CNS
OVCAR-5 ovarian = test system: OVCAR-5 ovarian
HT29 colon = test system: HT29 colon
NCI-H460 lung = test system: NCI-H460 lung
786-0 renal = test system: 786-0 renal
NCI-H23 lung = test system: NCI-H23 lung
RPMI-8226 leukemia = test system: RPMI-8226 leukemia
CAKI-1 renal = test system: CAKI-1 renal
HOP-92 NSCLC = test system: HOP-92 NSCLC
HOP-62 NSCLC = test system: HOP-62 NSCLC
TK-10 renal = test system: TK-10 renal
RXF 393 renal = test system: RXF 393 renal
HCC-2998 colon = test system: HCC-2998 colon
HCT-116 colon = test system: HCT-116 colon
COLO 205 colon = test system: COLO 205 colon
SF-295 CNS = test system: SF-295 CNS
NCI-H226 lung = test system: NCI-H226 lung
SF-268 CNS = test system: SF-268 CNS
A549 NSCLC = test system: A549 NSCLC
EKVX NSCLC = test system: EKVX NSCLC
A498 renal = test system: A498 renal
BT-549 breast = test system: BT-549 breast
K-562 leukemia = test system: K-562 leukemia
OVCAR-3 ovarian = test system: OVCAR-3 ovarian
UO-31 renal = test system: UO-31 renal
MCF7 breast = test system: MCF7 breast
SW-620 colon = test system: SW-620 colon
MOLT-4 leukemia = test system: MOLT-4 leukemia
NCI-H522 lung = test system: NCI-H522 lung
HS 578T breast = test system: HS 578T breast
UACC-257 melanoma = test system: UACC-257 melanoma
SK-MEL-5 melanoma = test system: SK-MEL-5 melanoma
T-47D breast = test system: T-47D breast
CCRF-CEM leukemia = test system: CCRF-CEM leukemia
SN12C renal = test system: SN12C renal
LOX IMVI melanoma = test system: LOX IMVI melanoma

For `NS(=O)(=O)c1nnc(NS(=O)(=O)C(F)(F)F)s1`, the TGI (MALME-3M melanoma) was > 100 µM, the TGI (OVCAR-4 ovarian) was > 100 µM and the TGI (HCT-15 colon) was > 100 µM. The TGI (SNB-75 CNS) was > 100 µM, the TGI (SK-MEL-28 melanoma) was > 100 µM and the TGI (U251 CNS) was > 100 µM. For the same compound, the TGI (UACC-62 melanoma) was > 100 µM, the TGI (HL-60(TB) leukemia) was > 100 µM and the TGI (SF-539 CNS) was > 100 µM. The TGI (DU-145 prostate) was > 100 µM, the TGI (SK-OV-3 ovarian) was > 100 µM and the TGI (PC-3 prostate) was > 100 µM. The TGI (ACHN renal) was > 100 µM, the TGI (OVCAR-8 ovarian) was > 100 µM and the TGI (M14 melanoma) was > 100 µM. For the same compound, the TGI (MDA-MB-435) was > 100 µM, the TGI (KM12 colon) was > 100 µM and the TGI (NCI/ADR-RES ovarian) was > 100 µM. For the same compound, the TGI (SK-MEL-2 melanoma) was > 100 µM, the TGI (SR leukemia) was > 100 µM and the TGI (MDA-MB-231 breast) was > 100 µM. For the same compound, the TGI (SNB-19 CNS) was > 100 µM, the TGI (OVCAR-5 ovarian) was > 100 µM and the TGI (HT29 colon) was > 100 µM. The TGI (NCI-H460 lung) was > 100 µM, the TGI (786-0 renal) was > 100 µM and the TGI (NCI-H23 lung) was > 100 µM. For the same compound, the TGI (RPMI-8226 leukemia) was > 100 µM, the TGI (CAKI-1 renal) was > 100 µM and the TGI (HOP-92 NSCLC) was > 100 µM. The TGI (HOP-62 NSCLC) was > 100 µM, the TGI (TK-10 renal) was > 100 µM and the TGI (RXF 393 renal) was > 100 µM. The TGI (HCC-2998 colon) was > 100 µM, the TGI (HCT-116 colon) was > 100 µM and the TGI (COLO 205 colon) was > 100 µM. For the same compound, the TGI (SF-295 CNS) was > 100 µM, the TGI (NCI-H226 lung) was > 100 µM and the TGI (SF-268 CNS) was > 100 µM. The TGI (A549 NSCLC) was > 100 µM, the TGI (EKVX NSCLC) was > 100 µM and the TGI (A498 renal) was > 100 µM. For the same compound, the TGI (BT-549 breast) was > 100 µM, the TGI (K-562 leukemia) was > 100 µM and the TGI (OVCAR-3 ovarian) was > 100 µM. The TGI (UO-31 renal) was > 100 µM, the TGI (MCF7 breast) was > 100 µM and the TGI (SW-620 colon) was > 100 µM. For the same compound, the TGI (MOLT-4 leukemia) was > 100 µM and the TGI (NCI-H522 lung) was > 100 µM.
In the case of `CC(NC(=O)C(N)CCC(=O)O)C(=O)NCP(=O)(O)O` (configuration not stated), the GI50 (M14 melanoma) is reported as 15.9 µg/mL.
With `CCCCCO/N=C\c1c2c(O)c3c(O)c(C)c4c(c3c1O)C(=O)C(C)(O/C=C\C(OC)C(C)C(OC(C)=O)C(C)C(O)C(C)C(O)C(C)/C=C\C=C(\C)C(=O)N2)O4` (configuration not stated) the GI50 (OVCAR-4 ovarian) was 2.28 µM, the TGI (OVCAR-4 ovarian) was 6.1 µM and the GI50 (HCT-15 colon) was 1.79 µM. The TGI (HCT-15 colon) was 3.31 µM, the GI50 (SNB-75 CNS) was 1.46 µM and the TGI (SNB-75 CNS) was 2.87 µM. It also gave a GI50 (SK-MEL-28 melanoma) of 1.66 µM, a TGI (SK-MEL-28 melanoma) of 3.02 µM and a GI50 (HS 578T breast) of 1.69 µM. It also gave a TGI (HS 578T breast) of 4.2 µM, a GI50 (U251 CNS) of 1.84 µM and a TGI (U251 CNS) of 3.54 µM. The GI50 (UACC-62 melanoma) was 1.39 µM, the TGI (UACC-62 melanoma) was 2.71 µM and the GI50 (HL-60(TB) leukemia) was 2.92 µM. The TGI (HL-60(TB) leukemia) was 6.34 µM, the GI50 (SF-539 CNS) was 1.98 µM and the TGI (SF-539 CNS) was 3.86 µM. It also gave a GI50 (DU-145 prostate) of 1.93 µM, a TGI (DU-145 prostate) of 4.29 µM and a GI50 (SK-OV-3 ovarian) of 2.29 µM. For the same compound, the TGI (SK-OV-3 ovarian) was 6.84 µM, the GI50 (PC-3 prostate) was 1.65 µM and the TGI (PC-3 prostate) was 4.5 µM. For the same compound, the GI50 (ACHN renal) was 1.8 µM, the TGI (ACHN renal) was 3.33 µM and the GI50 (M14 melanoma) was 1.62 µM. For the same compound, the TGI (M14 melanoma) was 3.01 µM, the GI50 (MDA-MB-435) was 1.81 µM and the TGI (MDA-MB-435) was 3.68 µM. The GI50 (UACC-257 melanoma) was 2.3 µM, the TGI (UACC-257 melanoma) was 6.19 µM and the GI50 (KM12 colon) was 1.64 µM. The TGI (KM12 colon) was 3 µM, the GI50 (NCI/ADR-RES ovarian) was 1.79 µM and the TGI (NCI/ADR-RES ovarian) was 3.68 µM. For the same compound, the GI50 (SR leukemia) was 2.88 µM, the TGI (SR leukemia) was 7.34 µM and the GI50 (MDA-MB-231 breast) was 1.75 µM. The TGI (MDA-MB-231 breast) was 3.2 µM, the GI50 (SNB-19 CNS) was 1.67 µM and the TGI (SNB-19 CNS) was 3.19 µM. For the same compound, the GI50 (SK-MEL-5 melanoma) was 1.5 µM, the TGI (SK-MEL-5 melanoma) was 2.82 µM and the GI50 (OVCAR-5 ovarian) was 1.94 µM. For the same compound, the TGI (OVCAR-5 ovarian) was 4.12 µM, the GI50 (T-47D breast) was 2.15 µM and the TGI (T-47D breast) was 5.33 µM. For the same compound, the GI50 (NCI-H460 lung) was 1.51 µM, the TGI (NCI-H460 lung) was 2.83 µM and the GI50 (786-0 renal) was 1.73 µM. For the same compound, the TGI (786-0 renal) was 3.25 µM, the GI50 (NCI-H23 lung) was 1.74 µM and the TGI (NCI-H23 lung) was 3.44 µM. The GI50 (RPMI-8226 leukemia) was 2.34 µM, the TGI (RPMI-8226 leukemia) was 6.69 µM and the GI50 (CCRF-CEM leukemia) was 2.92 µM. The TGI (CCRF-CEM leukemia) was 10.2 µM, the GI50 (CAKI-1 renal) was 1.91 µM and the TGI (CAKI-1 renal) was 4.5 µM. The GI50 (HOP-62 NSCLC) was 1.65 µM, the TGI (HOP-62 NSCLC) was 3.04 µM and the GI50 (RXF 393 renal) was 1.71 µM. It also gave a TGI (RXF 393 renal) of 3.1 µM, a GI50 (HCC-2998 colon) of 1.65 µM and a TGI (HCC-2998 colon) of 3.08 µM. The GI50 (HCT-116 colon) was 1.65 µM, the TGI (HCT-116 colon) was 3.01 µM and the GI50 (COLO 205 colon) was 1.52 µM. The TGI (COLO 205 colon) was 2.85 µM, the GI50 (SF-295 CNS) was 1.87 µM and the TGI (SF-295 CNS) was 4.3 µM. The GI50 (SF-268 CNS) was 1.66 µM, the TGI (SF-268 CNS) was 3.23 µM and the GI50 (A549 NSCLC) was 1.8 µM. For the same compound, the TGI (A549 NSCLC) was 3.39 µM, the GI50 (EKVX NSCLC) was 2.09 µM and the TGI (EKVX NSCLC) was 6.95 µM. The GI50 (A498 renal) was 1.64 µM, the TGI (A498 renal) was 3.16 µM and the GI50 (K-562 leukemia) was 3.57 µM. For the same compound, the TGI (K-562 leukemia) was > 100 µM, the GI50 (OVCAR-3 ovarian) was 1.5 µM and the TGI (OVCAR-3 ovarian) was 2.82 µM. It also gave a GI50 (MCF7 breast) of 1.71 µM, a TGI (MCF7 breast) of 3.54 µM and a GI50 (SN12C renal) of 1.63 µM. The TGI (SN12C renal) was 3.35 µM, the GI50 (SW-620 colon) was 1.68 µM and the TGI (SW-620 colon) was 3.04 µM. It also gave a GI50 (MOLT-4 leukemia) of 2.8 µM, a TGI (MOLT-4 leukemia) of 9.1 µM and a GI50 (LOX IMVI melanoma) of 1.65 µM. For the same compound, the TGI (LOX IMVI melanoma) was 3.01 µM.
Work on `ClCCN(CCCl)c1ccc(/C=N/Nc2ccnc3ccccc23)cc1` yielded a TGI (MALME-3M melanoma) of 3.19 µM, a TGI (HCT-15 colon) of 2.86 µM and a TGI (HS 578T breast) of 5.1 µM. The TGI (U251 CNS) was 3.03 µM, the TGI (UACC-62 melanoma) was 3.23 µM and the TGI (DU-145 prostate) was 3.5 µM. It also gave a TGI (PC-3 prostate) of 2.99 µM, a TGI (ACHN renal) of 3.37 µM and a TGI (MDA-MB-435) of 3.14 µM. The TGI (MDA-MB-231 breast) was 3.45 µM, the TGI (SK-MEL-5 melanoma) was 3.47 µM and the TGI (NCI-H460 lung) was > 100 µM. The TGI (NCI-H23 lung) was 3.89 µM, the TGI (RPMI-8226 leukemia) was 3.97 µM and the TGI (CAKI-1 renal) was 3.8 µM. It also gave a TGI (HOP-92 NSCLC) of 3.38 µM, a TGI (HOP-62 NSCLC) of 4.75 µM and a TGI (TK-10 renal) of 3.15 µM. The TGI (SF-295 CNS) was 2.99 µM, the TGI (NCI-H226 lung) was 3.48 µM and the TGI (A549 NSCLC) was 3.38 µM. The TGI (A498 renal) was 46.7 µM, the TGI (K-562 leukemia) was 3.15 µM and the TGI (MCF7 breast) was > 100 µM. The TGI (SN12C renal) was 3.18 µM, the TGI (SW-620 colon) was 4.48 µM and the TGI (LOX IMVI melanoma) was 3.09 µM.
